Test system: H358 cells
Test: Cell activity experiment: activity test of H358 cells (MTT, 5 days)
Type: cell-based
Conditions: Homo sapiens, NCI-H358, 120 h, 5 days incubation, absorbance 492 nm
How it was run: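 H358 cells seeded 90 μL at 55555 cells/mL, grown 24 h, then exposed to 3-fold serial compound dilutions (final top 10000 nM, 0.5% DMSO) in triplicate for 5 days at 37° C., 5% CO2. Viability by MTT (4 h), formazan dissolved in DMSO, absorbance at 492 nm.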

| Compound | IC50 [nM] |
| --- | --- |
| C=CC(=O)N1CCN(c2nc(OC[C@@H]3CCCN3C)nc3nc(-c4cccc5c4CCCC5)ccc23)C[C@@H]1CC#N [Example 77, 2-((S)-1-acryloyl-4-(2-(((S)-1-methylpyrrolidin-2-yl)methoxy)-7-(5,6,7,8-tetrahydronaphthalen-1-yl)pyridino[2,3-d]pyrimidin-4-yl)piperazin-2-yl)acetonitrile] | 55 |
| C=C(F)C(=O)N1CCN(c2nc(OC[C@@H]3CCCN3C)nc3cc(-c4cccc5cccc(Cl)c45)ccc23)C[C@@H]1CC#N [Example 78] | 60 |
| C=CC(=O)N1CCN(c2nc(OC[C@@H]3C[C@@H](F)CN3C)nc3cc(-c4cccc5cccc(Cl)c45)ccc23)C[C@@H]1CC#N [Example 79, 2-((S)-1-acryloyl-4-(7-(8-chloronaphthalen-1-yl)-2-((((2S,4R)-4-fluoro-1-methylpyrrolidin-2-yl]methoxy))quinazolin-4-yl)piperazin-2-yl)acetonitrile] | 20 |
| C=C(F)C(=O)N1CCN(c2nc(OC[C@@H]3C[C@@H](F)CN3C)nc3cc(-c4cccc5cccc(Cl)c45)ccc23)C[C@@H]1CC#N [Example 80] | 65 |
| C=CC(=O)N1CCN(c2nc(OCC34CCCN3CCC4)nc3cc(-c4cccc5cccc(Cl)c45)ccc23)C[C@@H]1CC#N [Example 81] | 5.5 |
| C=C(F)C(=O)N1CCN(c2nc(OCC34CCCN3CCC4)nc3cc(-c4cccc5cccc(Cl)c45)ccc23)C[C@@H]1CC#N [Example 82, (S)-2-(4-(7-(8-chloronaphthalen-1-yl)-2-((tetrahydro-1H-pyrrolizin-7a(5H)-yl)methoxy)quinazolin-4-yl)-1-(2-fluoroacryloyl)piperazin-2-yl)acetonitrile] | 12 |
| C=CC(=O)N1CCN(c2nc(OC[C@@]34CCCN3C[C@H](F)C4)nc3cc(-c4cccc5cccc(Cl)c45)ccc23)C[C@@H]1CC#N [Example 83] | 3.2 |
| C=C(F)C(=O)N1CCN(c2nc(OC[C@@]34CCCN3CC(F)C4)nc3cc(-c4cccc5cccc(Cl)c45)ccc23)C[C@@H]1CC#N (some centres unmarked) [Example 84] | 10 |
| C=CC(=O)N1CC[C@@H]2[C@H]1CN2c1nc(OC[C@@H]2CCCN2C)nc2cc(-c3cccc4cccc(Cl)c34)ccc12 [Example 85, 1-((1R,5R)-6-(7-(8-chloronaphthalen-1-yl)-2-(((S)-1-methylpyrrolidin-2-yl)methoxy)quinazolin-4-yl)-2,6-diazabicyclo[3.2.0]hept-2-yl)prop-2-en-1-one] | 6 |
| C=CC(=O)N1CCN(c2nc(OC[C@@H]3CCCN3C)nc3cc(-c4cccc5ccc(F)c(Cl)c45)ccc23)C[C@@H]1CC#N [Example 93, 2-((S)-1-acryloyl-4-(7-(8-chloro-7-fluoronaphthalen-1-yl)-2-(((S)-1-methylpyrrolidin-2-yl)methoxy)quinazolin-4-yl)piperazin-2-yl)acetonitrile] | 6.5 |
| C=C(F)C(=O)N1CCN(c2nc(OC[C@@H]3CCCN3C)nc3cc(-c4cccc5ccc(F)c(Cl)c45)ccc23)C[C@@H]1CC#N [Example 94, 2-((S)-4-(7-(8-chloro-7-fluoronaphthalen-1-yl)-2-(((S)-1-methylpyrrolidin-2-yl)methoxy)quinazolin-4-yl)-1-(2-fluoroacryloyl)piperazin-2-yl)acetonitrile] | 15 |
| C=CC(=O)N1CCN(c2nc(OC[C@@H]3C[C@@H](F)CN3C)nc3cc(-c4cccc5ccc(F)c(Cl)c45)ccc23)C[C@@H]1CC#N [Example 95] | 8 |
| C=C(F)C(=O)N1CCN(c2nc(OC[C@@H]3C[C@@H](F)CN3C)nc3cc(-c4cccc5ccc(F)c(Cl)c45)ccc23)C[C@@H]1CC#N [Example 96] | 25 |
| C=CC(=O)N1CCN(c2nc(OCC34CCCN3CCC4)nc3cc(-c4cccc5ccc(F)c(Cl)c45)ccc23)C[C@@H]1CC#N [Example 97, (S)-2-(1-acryloyl-4-(7-(8-chloro-7-fluoronaphthalen-1-yl)-2-((tetrahydro-1H-pyrrolizin-7a(5H)-yl)methoxy)quinazolin-4-yl)piperazin-2-yl)acetonitrile] | 0.49 |
